Results reported in US10080748B2, “Use of flap inhibitors to reduce neuroinflammation mediated injury in the central nervous system” (Bioscience Pharma Partners, LLC, priority 2014, dated 2018).

Tested on: human whole blood
Test: Human whole blood bioassay of LTB4, 5-HETE and AA production
Format: cell-based
Settings: human whole blood; data not shown
From the text: The results are for the effects of these two FLAP inhibitors on LTB4 production and 5-HETE production. It is known that indole-acetic acid FLAP inhibitors like MK-886, MK-591 display high plasma protein binding. Thus, the potencies of these FLAP inhibitors for blocking leukotrienes in vivo are about 100 fold higher than the affinity of the inhibitors for FLAP binding. The inventors developed a bioassay that closely predicts the in vivo potency of FLAP inhibitors using human whole blood. Briefly, whole blood is incubated with a calcium ionophore like […] or zymosan in the absence or presence of increasing concentrations of a FLAP inhibitor. After incubation at 37° C. for 30 minutes, the samples are centrifuged and the plasma supernatant is subjected to reverse phase liquid chromatography coupled to tandem mass spectrometry to quantify levels of LTB4, 5-HETE, and AA production. Drug IC50 values are determined by non-linear regression analysis (GraphPad Prism).). […] As FLAP inhibitors are poorly water soluble drugs, the inventors have shown that such hydrophobic drugs can be formulated in a carrier comprising one or more vegetable oils, such as olive oil, and phosphatidylserine that are found on the Generally Accepted as Safe (GRAS) list and that such drugs can then be rapidly delivered and targeted to the brain and upper spinal cord. Hanson L R, et al, Drug Delivery 19(3):149-54, 2012.

With CC(C)c1ccc2c(c1)c(SC(C)(C)C)c(CC(C)(C)C(=O)O)n2Cc1ccc(Cl)cc1 [MK-886, 1-[(4-Chlorophenyl)methyl]-3-[(1,1-dimethylethyl)thio]-α,α-dimethyl-5-(1-methylethyl)-1H-Indole-2-propanoic acid] the AA production was “neither of the FLAP inhibitors effected AA production”.
